Measured values as given in ChEMBL document CHEMBL4028801, “A multifactorial approach to hepatobiliary transporter assessment enables improved therapeutic compound development” (Toxicol Sci, 2013).
Where a name gives a salt, the structure may show the parent alone. Positions of bridges follow the written chain, without caps; N, C: chain ends. Non-standard residues stand in square brackets, D forms with d. Residues, ends and D or L forms follow the SMILES beside them. Orn = NCCC[C@H](N)C(=O)O; Mpa = O=C(O)CCS

Legend:
Bile salt export pump = Bile salt export pump (Homo sapiens, UniProt O95342); test: Inhibition of human BSEP overexpressed in Sf9 cell membrane vesicles assessed as uptake of [3H]-taurocholate in presence of ATP measured after 15 to 20 mins by membrane vesicle transport assay; assay type: ADME, cell-based
Bile salt export pump, sequence (O95342 whole entry): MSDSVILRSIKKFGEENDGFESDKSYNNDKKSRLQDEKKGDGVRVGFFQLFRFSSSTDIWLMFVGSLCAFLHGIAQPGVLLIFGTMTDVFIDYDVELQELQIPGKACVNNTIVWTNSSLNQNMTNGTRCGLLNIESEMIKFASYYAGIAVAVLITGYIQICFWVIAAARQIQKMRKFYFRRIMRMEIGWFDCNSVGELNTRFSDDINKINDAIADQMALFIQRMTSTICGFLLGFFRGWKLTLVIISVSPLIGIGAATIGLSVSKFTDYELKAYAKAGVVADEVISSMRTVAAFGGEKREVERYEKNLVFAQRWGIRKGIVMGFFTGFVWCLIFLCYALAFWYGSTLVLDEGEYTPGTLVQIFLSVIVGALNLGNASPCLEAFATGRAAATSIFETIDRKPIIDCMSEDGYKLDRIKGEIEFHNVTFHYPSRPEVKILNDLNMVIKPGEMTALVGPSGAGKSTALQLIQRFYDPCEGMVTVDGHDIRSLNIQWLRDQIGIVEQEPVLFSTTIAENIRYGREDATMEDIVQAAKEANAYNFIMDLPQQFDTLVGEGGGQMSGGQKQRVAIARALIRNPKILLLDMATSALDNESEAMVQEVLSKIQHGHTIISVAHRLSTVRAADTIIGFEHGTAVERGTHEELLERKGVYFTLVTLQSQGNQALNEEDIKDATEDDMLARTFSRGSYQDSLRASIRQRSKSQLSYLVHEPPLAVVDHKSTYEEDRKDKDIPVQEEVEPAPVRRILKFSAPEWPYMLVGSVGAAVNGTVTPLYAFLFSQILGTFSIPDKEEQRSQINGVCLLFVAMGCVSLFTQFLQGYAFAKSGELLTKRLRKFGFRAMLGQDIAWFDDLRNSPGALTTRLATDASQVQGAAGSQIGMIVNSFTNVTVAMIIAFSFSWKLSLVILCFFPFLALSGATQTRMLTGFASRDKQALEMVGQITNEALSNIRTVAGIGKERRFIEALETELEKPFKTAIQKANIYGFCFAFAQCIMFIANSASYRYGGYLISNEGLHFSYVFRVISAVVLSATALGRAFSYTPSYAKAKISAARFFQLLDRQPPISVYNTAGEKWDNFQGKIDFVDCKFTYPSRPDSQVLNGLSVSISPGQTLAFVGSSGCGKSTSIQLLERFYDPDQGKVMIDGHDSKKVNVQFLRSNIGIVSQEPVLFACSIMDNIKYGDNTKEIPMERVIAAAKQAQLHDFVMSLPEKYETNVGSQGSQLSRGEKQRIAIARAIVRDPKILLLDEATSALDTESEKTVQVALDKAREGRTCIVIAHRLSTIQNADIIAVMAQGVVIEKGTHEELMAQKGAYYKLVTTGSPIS

[1] = target: ATP-binding cassette sub-family C member 2 (Homo sapiens, UniProt Q92887); test: Inhibition of human MRP2 overexpressed in Sf9 cell membrane vesicles assessed as uptake of [3H]-estradiol-17beta-D-glucuronide in presence of ATP and GSH measured after 20 mins by membrane vesicle transport assay
ATP-binding cassette sub-family C member 2, sequence (Q92887 whole entry): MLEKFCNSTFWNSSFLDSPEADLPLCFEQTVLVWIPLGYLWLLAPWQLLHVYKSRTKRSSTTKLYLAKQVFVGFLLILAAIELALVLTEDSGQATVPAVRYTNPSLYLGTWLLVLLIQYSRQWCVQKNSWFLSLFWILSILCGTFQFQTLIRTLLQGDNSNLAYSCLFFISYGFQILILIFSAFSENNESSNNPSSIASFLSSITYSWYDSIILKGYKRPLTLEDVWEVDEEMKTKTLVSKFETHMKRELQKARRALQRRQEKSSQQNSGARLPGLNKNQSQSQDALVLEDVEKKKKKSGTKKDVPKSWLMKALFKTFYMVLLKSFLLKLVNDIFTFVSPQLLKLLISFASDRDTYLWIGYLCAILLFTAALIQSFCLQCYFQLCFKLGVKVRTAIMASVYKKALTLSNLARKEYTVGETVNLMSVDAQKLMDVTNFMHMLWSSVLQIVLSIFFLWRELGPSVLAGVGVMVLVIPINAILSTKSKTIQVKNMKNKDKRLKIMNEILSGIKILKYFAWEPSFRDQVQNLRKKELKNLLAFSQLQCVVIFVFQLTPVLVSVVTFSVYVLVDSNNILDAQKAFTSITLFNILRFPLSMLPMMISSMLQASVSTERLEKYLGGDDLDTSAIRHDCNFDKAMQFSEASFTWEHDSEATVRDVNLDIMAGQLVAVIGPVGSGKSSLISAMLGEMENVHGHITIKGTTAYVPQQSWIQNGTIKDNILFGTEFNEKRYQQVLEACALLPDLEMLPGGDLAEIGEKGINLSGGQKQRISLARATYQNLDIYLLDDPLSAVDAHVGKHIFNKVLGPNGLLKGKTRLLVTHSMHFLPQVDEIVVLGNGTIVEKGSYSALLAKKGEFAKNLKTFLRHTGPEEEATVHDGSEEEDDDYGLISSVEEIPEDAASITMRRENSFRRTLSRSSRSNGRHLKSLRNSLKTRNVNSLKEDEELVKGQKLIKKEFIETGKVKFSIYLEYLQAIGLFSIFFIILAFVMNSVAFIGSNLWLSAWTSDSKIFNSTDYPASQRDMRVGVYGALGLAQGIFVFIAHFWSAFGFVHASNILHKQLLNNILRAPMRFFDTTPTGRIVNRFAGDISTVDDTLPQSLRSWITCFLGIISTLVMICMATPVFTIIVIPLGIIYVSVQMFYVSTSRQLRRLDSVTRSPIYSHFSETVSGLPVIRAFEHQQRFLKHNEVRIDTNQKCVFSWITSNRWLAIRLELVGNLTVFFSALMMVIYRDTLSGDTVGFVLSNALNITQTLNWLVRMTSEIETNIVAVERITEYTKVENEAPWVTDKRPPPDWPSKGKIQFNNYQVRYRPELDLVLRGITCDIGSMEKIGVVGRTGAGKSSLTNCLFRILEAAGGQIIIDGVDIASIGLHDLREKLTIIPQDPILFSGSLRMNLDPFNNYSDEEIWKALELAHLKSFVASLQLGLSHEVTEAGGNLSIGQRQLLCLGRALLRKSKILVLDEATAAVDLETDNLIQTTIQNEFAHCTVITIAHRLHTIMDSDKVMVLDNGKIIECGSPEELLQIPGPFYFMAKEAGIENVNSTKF

[2] = target: ATP-binding cassette sub-family C member 3 (Homo sapiens, UniProt O15438); test: Inhibition of human MRP3 overexpressed in Sf9 insect cell membrane vesicles assessed as uptake of [3H]-estradiol-17beta-D-glucuronide in presence of ATP and GSH measured after 10 mins by membrane vesicle transport assay; assay type: ADME, cell-based
ATP-binding cassette sub-family C member 3, sequence (O15438 whole entry): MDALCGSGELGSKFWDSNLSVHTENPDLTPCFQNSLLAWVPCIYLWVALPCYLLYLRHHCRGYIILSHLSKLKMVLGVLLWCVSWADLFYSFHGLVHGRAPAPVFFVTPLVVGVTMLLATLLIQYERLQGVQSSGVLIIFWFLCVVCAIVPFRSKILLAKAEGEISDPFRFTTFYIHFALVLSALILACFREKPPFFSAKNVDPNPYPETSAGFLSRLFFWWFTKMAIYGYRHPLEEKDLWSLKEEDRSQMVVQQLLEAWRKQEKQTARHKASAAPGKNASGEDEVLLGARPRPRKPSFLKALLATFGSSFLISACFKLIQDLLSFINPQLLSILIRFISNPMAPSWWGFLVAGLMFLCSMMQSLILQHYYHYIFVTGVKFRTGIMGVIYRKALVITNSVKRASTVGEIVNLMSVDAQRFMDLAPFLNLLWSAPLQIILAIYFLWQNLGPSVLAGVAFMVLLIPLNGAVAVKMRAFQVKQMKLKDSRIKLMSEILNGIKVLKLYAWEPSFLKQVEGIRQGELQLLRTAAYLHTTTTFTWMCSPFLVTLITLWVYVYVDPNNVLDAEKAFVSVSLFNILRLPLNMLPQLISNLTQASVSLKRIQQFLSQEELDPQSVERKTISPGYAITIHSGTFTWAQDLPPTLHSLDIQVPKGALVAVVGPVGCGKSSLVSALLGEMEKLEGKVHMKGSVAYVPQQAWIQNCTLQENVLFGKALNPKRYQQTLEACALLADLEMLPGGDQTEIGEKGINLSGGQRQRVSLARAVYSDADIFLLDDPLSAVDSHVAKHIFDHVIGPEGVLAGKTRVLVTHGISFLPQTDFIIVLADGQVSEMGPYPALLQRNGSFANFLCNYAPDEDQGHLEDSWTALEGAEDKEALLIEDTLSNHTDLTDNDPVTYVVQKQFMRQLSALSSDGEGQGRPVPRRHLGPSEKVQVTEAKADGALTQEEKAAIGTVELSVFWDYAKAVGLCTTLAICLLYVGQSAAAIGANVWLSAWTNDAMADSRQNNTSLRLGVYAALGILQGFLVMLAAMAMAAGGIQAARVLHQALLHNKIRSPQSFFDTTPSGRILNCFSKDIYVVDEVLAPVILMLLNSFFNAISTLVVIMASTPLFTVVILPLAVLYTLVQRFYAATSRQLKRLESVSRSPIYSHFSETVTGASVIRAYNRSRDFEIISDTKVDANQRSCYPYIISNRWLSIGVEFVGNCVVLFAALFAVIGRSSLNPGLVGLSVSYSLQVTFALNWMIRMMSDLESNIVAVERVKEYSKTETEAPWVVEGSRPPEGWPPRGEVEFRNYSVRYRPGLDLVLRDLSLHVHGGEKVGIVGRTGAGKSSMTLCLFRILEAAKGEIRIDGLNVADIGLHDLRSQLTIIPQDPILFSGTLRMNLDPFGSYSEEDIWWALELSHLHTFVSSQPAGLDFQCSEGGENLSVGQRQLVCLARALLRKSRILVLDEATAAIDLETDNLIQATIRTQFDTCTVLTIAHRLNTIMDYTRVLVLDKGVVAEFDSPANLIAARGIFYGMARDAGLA

[3] = target: T1, ATP-binding cassette sub-family C member 4 (Homo sapiens, UniProt O15439); test: Inhibition of human MRP4 overexpressed in Sf9 cell membrane vesicles assessed as uptake of [3H]-estradiol-17beta-D-glucuronide in presence of ATP and GSH measured after 20 mins by membrane vesicle transport assay; assay type: ADME, cell-based
T1 sequence (O15439 whole entry): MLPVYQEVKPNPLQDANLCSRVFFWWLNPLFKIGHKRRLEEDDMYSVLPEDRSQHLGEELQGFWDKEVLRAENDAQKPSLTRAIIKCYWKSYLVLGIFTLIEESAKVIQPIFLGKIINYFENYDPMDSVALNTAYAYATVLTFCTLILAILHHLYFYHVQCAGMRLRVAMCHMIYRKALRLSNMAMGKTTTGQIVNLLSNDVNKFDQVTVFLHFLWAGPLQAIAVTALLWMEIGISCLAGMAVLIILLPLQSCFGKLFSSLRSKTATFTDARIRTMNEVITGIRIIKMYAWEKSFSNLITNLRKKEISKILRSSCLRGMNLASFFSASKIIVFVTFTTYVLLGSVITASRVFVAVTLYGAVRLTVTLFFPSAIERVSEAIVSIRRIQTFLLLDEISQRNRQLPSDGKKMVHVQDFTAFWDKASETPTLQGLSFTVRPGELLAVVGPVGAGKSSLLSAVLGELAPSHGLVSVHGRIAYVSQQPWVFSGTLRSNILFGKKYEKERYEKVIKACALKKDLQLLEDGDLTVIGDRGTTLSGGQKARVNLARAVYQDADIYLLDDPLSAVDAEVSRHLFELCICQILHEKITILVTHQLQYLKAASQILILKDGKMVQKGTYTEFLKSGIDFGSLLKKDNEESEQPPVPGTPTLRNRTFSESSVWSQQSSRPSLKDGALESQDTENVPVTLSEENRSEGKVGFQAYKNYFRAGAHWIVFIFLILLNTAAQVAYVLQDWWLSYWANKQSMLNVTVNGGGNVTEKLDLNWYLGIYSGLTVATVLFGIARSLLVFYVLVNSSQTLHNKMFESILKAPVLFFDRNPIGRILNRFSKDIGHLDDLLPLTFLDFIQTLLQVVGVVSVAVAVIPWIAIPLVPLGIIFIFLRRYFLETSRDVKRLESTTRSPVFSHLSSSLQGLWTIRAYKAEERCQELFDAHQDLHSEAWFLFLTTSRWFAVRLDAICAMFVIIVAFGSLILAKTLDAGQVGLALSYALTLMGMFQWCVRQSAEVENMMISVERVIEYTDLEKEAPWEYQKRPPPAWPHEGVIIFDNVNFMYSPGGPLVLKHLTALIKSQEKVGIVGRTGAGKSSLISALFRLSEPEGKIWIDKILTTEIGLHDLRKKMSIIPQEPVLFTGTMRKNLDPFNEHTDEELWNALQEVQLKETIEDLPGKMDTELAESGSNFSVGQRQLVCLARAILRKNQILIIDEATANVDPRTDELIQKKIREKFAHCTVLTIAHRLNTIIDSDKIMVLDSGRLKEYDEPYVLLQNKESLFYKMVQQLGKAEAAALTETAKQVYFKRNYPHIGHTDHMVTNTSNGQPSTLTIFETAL

Row | Structure (SMILES) | IC50 (Bile salt export pump) [µM] | IC50 [1] [µM] | IC50 [2] [µM] | IC50 [3] [µM]
1 | CS(=O)(=O)Nc1ccc([N+](=O)[O-])cc1Oc1ccccc1 [NIMESULIDE] | > 133 | > 133 | > 133 | > 133
2 | Cc1oncc1C(=O)Nc1ccc(C(F)(F)F)cc1 [LEFLUNOMIDE] | > 133 | > 133 | > 133 | > 133
3 | NCC[C@H](O)C(=O)N[C@@H]1C[C@H](N)[C@@H](O[C@H]2O[C@H](CN)[C@@H](O)[C@H](O)[C@H]2O)[C@H](O)[C@H]1O[C@H]1O[C@H](CO)[C@@H](O)[C@H](N)[C@H]1O [AMIKACIN] | > 133 | > 133 | > 133 | > 133
4 | COc1ccc2cc1Oc1cc3c(cc1OC)CC[N+](C)(C)[C@H]3Cc1ccc(cc1)Oc1c(OC)c(OC)cc3c1[C@@H](C2)[N+](C)(C)CC3 [METOCURINE] | > 133 | > 133 | > 133 | > 133
5 | CN(C)CCOc1ccc(/C(=C(/CCCl)c2ccccc2)c2ccccc2)cc1 [TOREMIFENE CITRATE] | 115 | > 133 | > 133 | > 133
6 | C[C@@H]1CC[C@H]2[C@@H](C)C(=O)O[C@@H]3O[C@@]4(C)CC[C@@H]1[C@]32OO4 [ARTEMISININ] | > 133 | > 133 | > 133 | > 133
7 | CCCNC(=O)NS(=O)(=O)c1ccc(Cl)cc1 [CHLORPROPAMIDE] | > 133 | > 133 | > 133 | > 133
8 | CC[C@H](C)C(=O)O[C@H]1C[C@H](O)C=C2C=C[C@H](C)[C@H](CC[C@@H](O)C[C@@H](O)CC(=O)O)[C@H]21 [PRAVASTATIN SODIUM] | > 133 | > 133 | 125 | > 133
9 | CCn1cc(C(=O)O)c(=O)c2cc(F)c(N3CCN(C)CC3)cc21 [PEFLOXACIN] | > 133 | > 133 | > 133 | > 133
10 | Cc1cn([C@H]2C[C@H](N=[N+]=[N-])[C@@H](CO)O2)c(=O)[nH]c1=O [ZIDOVUDINE] | > 133 | > 133 | > 133 | > 133
11 | CCCNCC(O)COc1ccccc1C(=O)CCc1ccccc1 (stereo not given) [PROPAFENONE] | > 133 | > 133 | > 133 | > 133
12 | CCN1CCC[C@H]1CNC(=O)c1c(OC)ccc(Br)c1OC [REMOXIPRIDE] | > 133 | > 133 | > 133 | > 133
13 | C[C@@H]1C/C=C/C=C/C=C/C=C/[C@H](O[C@@H]2O[C@H](C)[C@@H](O)[C@H](N)[C@@H]2O)C[C@@H]2O[C@](O)(C[C@@H](O)C[C@H]3O[C@@H]3/C=C/C(=O)O1)C[C@H](O)[C@H]2C(=O)O [NATAMYCIN] | > 133 | > 133 | > 133 | > 133
14 | CCCCC(=O)N(Cc1ccc(-c2ccccc2-c2nnn[nH]2)cc1)[C@H](C(=O)O)C(C)C | > 133 | > 133 | > 133 | > 133
15 | CCOc1ccc(C[C@H]2NC(=O)CCSSC[C@@H](C(=O)N3CCC[C@H]3C(=O)N[C@@H](CCCN)C(=O)NCC(N)=O)NC(=O)[C@H](CC(N)=O)NC(=O)[C@H]([C@@H](C)O)NC(=O)[C@H]([C@@H](C)CC)NC2=O)cc1 [ATOSIBAN] ([Mpa][dY](Et)ITNCP[Orn]G-NH2; disulfide 1-6) | > 133 | > 133 | > 133 | > 133
16 | CCCCN1CCCCC1C(=O)Nc1c(C)cccc1C (stereo not given) [BUPIVACAINE HYDROCHLORIDE] | > 133 | > 133 | > 133 | > 133
17 | Nc1nc2c(ncn2COCCO)c(=O)[nH]1 [ACYCLOVIR] | > 133 | > 133 | > 133 | > 133
18 | CC(=O)Oc1ccc(C(c2ccc(OC(C)=O)cc2)c2ccccn2)cc1 [BISACODYL] | > 133 | > 133 | > 133 | > 133

Row | Structure (SMILES) | IC50 (Bile salt export pump) [µM] | IC50 [1] [µM] | IC50 [2] [µM] | IC50 [3] [µM]
19 | C=CCN1C[C@H](C(=O)N(CCCN(C)C)C(=O)NCC)C[C@@H]2c3cccc4[nH]cc(c34)C[C@H]21 [CABERGOLINE] | > 133 | > 133 | > 133 | > 133
20 | CC(O)(P(=O)(O)O)P(=O)(O)O [ETIDRONATE DISODIUM] | > 133 | > 133 | > 133 | > 133
21 | Cn1c(=O)c2[nH]cnc2n(C)c1=O [THEOPHYLLINE] | > 133 | > 133 | > 133 | > 133
22 | Cc1cn([C@@H]2C[C@@H](O)[C@H](CO)O2)c(=O)[nH]c1=O [TELBIVUDINE] | > 133 | > 133 | > 133 | > 133
23 | CCOC(=O)/C=C(C)/C=C/C=C(C)/C=C/c1c(C)cc(OC)c(C)c1C [ETRETINATE] | > 133 | > 133 | > 133 | > 133
24 | CCOc1ccc(NC(C)=O)cc1 [PHENACETIN] | > 133 | > 133 | > 133 | > 133
25 | Oc1ncnc2[nH]ncc12 [ALLOPURINOL] | > 133 | > 133 | > 133 | > 133
26 | CCN(C(C)=O)c1cccc(-c2ccnc3c(C#N)cnn23)c1 [ZALEPLON] | > 133 | > 133 | > 133 | > 133
27 | OC(CNCC(O)C1CCc2cc(F)ccc2O1)C1CCc2cc(F)ccc2O1 (stereo not given) [NEBIVOLOL HYDROCHLORIDE] | > 133 | > 133 | > 133 | > 133
28 | O=C(CCCCCCC(=O)Nc1ccccc1)NO [VORINOSTAT] | > 133 | > 133 | > 133 | > 133
29 | Cc1ccc(C(=O)Nc2ccc(S(=O)(=O)O)c3cc(S(=O)(=O)O)cc(S(=O)(=O)O)c23)cc1NC(=O)c1cccc(NC(=O)Nc2cccc(C(=O)Nc3cc(C(=O)Nc4ccc(S(=O)(=O)O)c5cc(S(=O)(=O)O)cc(S(=O)(=O)O)c45)ccc3C)c2)c1 [SURAMIN] | > 133 | 36.8 | > 133 | > 133
30 | Oc1ccc(C2CNCCc3c2cc(O)c(O)c3Cl)cc1 (stereo not given) [FENOLDOPAM MESYLATE] | > 133 | > 133 | > 133 | > 133
31 | CN1CCN(c2c(F)cc3c(=O)c(C(=O)O)cn(CCF)c3c2F)CC1 [FLEROXACIN] | > 133 | > 133 | > 133 | > 133
32 | CC1(C)[C@H](C(=O)O)N2C(=O)C[C@H]2S1(=O)=O [SULBACTAM] | > 133 | > 133 | > 133 | > 133
33 | Cn1nnc2c(C(N)=O)ncn2c1=O [TEMOZOLOMIDE] | > 133 | > 133 | > 133 | > 133
34 | CC[C@@]1(O)C(=O)OCc2c1cc1n(c2=O)Cc2cc3ccccc3nc2-1 [CAMPTOTHECIN] | > 133 | > 133 | > 133 | 7.4
35 | NS(=O)(=O)Cc1noc2ccccc12 [ZONISAMIDE] | > 133 | > 133 | > 133 | > 133
